The text below walks through data of US20040029953A1, “Use of neuropeptide-y antagonists in treatment of alcoholism” (priority 2000, published 2004).

This assay concerns C57BL/6J mice. In words: Operant ethanol-reinforced lever pressing (CONC FR1 FR1, 16-h sessions) after systemic administration. Format: in vivo, mouse. The settings on record: for alcohol-seeking behavior (lever presses for alcohol) during the peak period: 4th-5th hour of access, vs saline. From the text: Another animal model suitable for testing the effectiveness of the NPY antagonist uses alcohol-reinforced lever pressing behavior as described in Olive et al. Eur. J. Neurosci. 2000 Vol 12, 4131-4140. This model is particularly useful for identifying NPY antagonists that prevent or delay alcohol seeking behavior or prevent or reduce the occurence of relapse drinking in recovering alcoholics.
Male C57BL/6J mice (N=8) were housed in standard Plexiglas cages (n=4/cage) with food (Harlan, Indianapolis, Ind.) and water always available. Mice were 20 weeks of age (body weight, 28-35 g) and drug naïve at the start of all testing. During operant self-administration training, food pellets (15 g per overnight session) were placed into the operant chambers and water was available under a fixed ratio-1 (FR-1) schedule of reinforcement.
Test sessions were conducted in 8 Plexiglas operant chambers (Med Associates, Lafayette, Ind.) measuring 15.9×14×12.7 cm with stainless steel grid floors. Each chamber was housed in a sound-attenuating cubicle equipped with a house fan that provided ventilation and helped mask external noise. The left and right wall of each operant chamber was equipped with one ultra-sensitive stainless steel response lever and a liquid delivery system. Liquid solutions (ethanol or water) were maintained in 60 ml syringes mounted on a programmable pump (PH-100, Med Associates), which delivered 0.01 ml per activation into a stainless steel cup located to the left of the associated response lever. Each chamber also contained a house light (illuminated between 16:00-18:00 hr and 06:00-08:00 hr), as well as a stimulus light located above each lever (activated each time the lever was pressed). The chambers were interfaced (Med Associates) to an IBM-compatible PC, which was programmed to record all lever presses and liquid deliveries.
Mice were trained to lever press using reinforcement (10% sucrose w/v) of successive approximations. After initial behavioral shaping sessions, mice were run during 16 hr overnight (16:00-08:00 hrs) training sessions. During these training sessions, both response levers were active on a concurrent fixed ratio one (CONC FR1 FR1) schedule with 10% sucrose vs. water presented as the reinforcer. The position of each solution (left or right) was fixed for each animal but counterbalanced between animals to control for side preference. After 4 days, mice were trained to orally self-administer ethanol (10% v/v) vs. water using a sucrose substitution procedure, which we have adapted for use in the mouse (Olive et al., 2000 Eur. J. Neurosci. 12:4131-4140). Briefly, ethanol (2, 4, 8, or 10% v/v) was incrementally added to the sucrose (10% w/v) solution with 4 days at each increasing concentration. Then, sucrose (10, 5, 2% w/v) was incrementally faded out of the ethanol containing solution with 4 days at each decreasing concentration. After sucrose substitution training, all mice reliably responded on the CONC FR1 FR1 schedule of reinforcement with ethanol (10% v/v) vs. water presented as the reinforcers.

“Also recorded” adds a separate entry of the source.

Turning to `CC1(C)CC(=O)C(C2C3=C(CC(C)(C)CC3=O)Oc3ccccc32)C(=O)C1` (stereo not shown) [L 152,804, 2-(3,3-dimethyl-1-oxo-4H-1H-xanthen-9-yl)-5,5-dimethylcyclohexane-1,3-dione], where the note is “60 mg/kg”, the “self-administration during the 13th hour of access” value is “compensatory increase in self-administration” and the “alcohol-seeking behavior (lever presses for alcohol) during the peak period” value was “significantly decreased alcohol-seeking behavior”. The “alcohol-seeking behavior (lever presses for alcohol) during the peak period” value (60 mg/kg, listed as LI 52,804) is given as “blocked this peak in alcohol-seeking behavior”. For the same compound, the “latency to the first response (delay to first alcohol lever press)” value (dose-dependent, vs no injection and saline controls) was “significantly increased the latency to the first response; also recorded: dose dependently delayed the onset of responding”. Moreover, the “response latency, statistical significance” value (highest dose) was “did not achieve significance”. For the same compound, the “water intake during 16-h sessions” value (systemic, 10, 30 and 60 mg/kg) is listed as “no effect on water intake”. In addition, the ethanol self-administration result (the two low doses (10, 30 mg/kg)) is listed as “did not significantly alter ethanol self-administration”.
